“Also recorded” adds a separate entry of the source. Read-outs that look alike come from different tables or passages of the source. Positions of bridges follow the written chain, without caps; N, C: chain ends. Residues, ends and D or L forms follow the SMILES beside them.
Columns and labels:
[1] = molecular target: T1, factor VIIa/tissue factor (Homo sapiens, UniProt P13726); assay: two-stage chromogenic assay of factor VIIa/tissue factor-catalysed factor X activation; assay type: biochemical
T1 construct: purchased American Diagnostica, Inc. (TF); Novo Nordisk A/S (FVIIa)
Procedure: This was determined using a two-stage chromogenic biochemical in vitro assay, essentially as described (A. Kumar et al., 1991, J. Biol. Chem., 266, 915). In short: peptides were pre-incubated with lipidated TF (5 pM; from American Diagnostica, Inc., Greenwich, Conn., USA) and calcium (5 mM) for 10 minutes prior to addition of FVIIa (5 pM; from Novo Nordisk A/S, Gentofte, Denmark) and FX (20 nM; from Enzyme Research Laboratory, South Bend, Ind., USA). Reactions were terminated by addition of EDTA (50 mM) and formation of FXa was monitored using the chromogenic FXa substrate S2765 (0.4 mM; from Chromogenix, Mondal, Sweden) and measuring the absorbance increase at 405 nm in a microtitre plate reader. The concentration for half-maximal inhibition (IC50) was determined from dose-inhibition curves.

[2] = solubility in physiological media; assay type: physicochemical
[3] = molecular target: binding of Factor VII to tissue factor (Homo sapiens, UniProt P13726); settings: reported in PCT/GB94/01315; cited from earlier work
[4] = tested on: tissue factor-dependent plasma coagulation; assay: one-stage in vitro tissue factor-dependent plasma coagulation assay; assay type: biochemical, human; settings: end-capped peptide tested up to 1.5 mM
Procedure: A one-stage in vitro coagulation assay was used as follows: peptides dissolved in 3-[N-morpholino]propane-sulphonic acid buffer (100 mM, pH 7.4) and NaCl (100 mM) were premixed with diluted (1:50 in saline) lipidated TF (Thromborel S®, Behringwerke AG, Marburg, Germany) and CaCl2 (5 mM final concentration) and the solutions were kept at 37° C. for 2 minutes. The coagulation reaction was initiated by addition of a thawed aliquot of frozen platelet-free human plasma pool (37° C.). The clotting-time for four replicate incubations were simultaneously determined automatically in an electromagnetic coagulometer (Thrombotrack 4, Nycomed Pharma AS, Oslo, Norway). The mean value for the clotting times determined from the replicate samples were converted to arbitrary TF units by a log-log calibration curve generated with Thromborel.

[5] = tested on: TF-dependent arterial thrombogenesis; assay: human ex vivo model of TF-dependent arterial thrombogenesis; settings: around 1 mM final peptide/plasma concentration
Procedure: Apart from the ability of the peptide disulphide-cyclo-[H-Cys-Glu-Gln-Tyr-Cys-OH] to inhibit the complex formation between FVIIa and TF in various biochemical assays, we have also found this peptide to be efficacious in a clinically relevant ex vivo model of TF/FVII-dependent arterial human thrombogenesis.
The efficacy of peptides was tested in a human ex vivo model of TF-dependent arterial thrombogenesis, essentially as described (K. S. Sakariassen et al., 1990, Arteriosclerosis, 10, 276; U. .O slashed.rvim et al., 1995, Arterioscl. Thromb. Vasc. Biol., in press). Human non-anticoagulated blood was drawn directly from an antecubital vein and mixed with peptide solution in a heparin-coated mixing device situated proximally to a perfusion chamber which contained a TF-coated coverslip (Thromborel S®). Blood flow was kept at 10 mL/min for 4 minutes, producing a shear rate of 650 s^-1, typical for small arteries.

[6] = mean±standard deviation, TF 5 pM, FVIIa 5 pM, FX 20 nM, read-out: IC50 (concentration for half-maximal inhibition of FXa formation)
[7] = summary values in the description, read-out: IC50 in the two-stage chromogenic assay of A. Kumar et al.

T1 sequence (P13726 33-295): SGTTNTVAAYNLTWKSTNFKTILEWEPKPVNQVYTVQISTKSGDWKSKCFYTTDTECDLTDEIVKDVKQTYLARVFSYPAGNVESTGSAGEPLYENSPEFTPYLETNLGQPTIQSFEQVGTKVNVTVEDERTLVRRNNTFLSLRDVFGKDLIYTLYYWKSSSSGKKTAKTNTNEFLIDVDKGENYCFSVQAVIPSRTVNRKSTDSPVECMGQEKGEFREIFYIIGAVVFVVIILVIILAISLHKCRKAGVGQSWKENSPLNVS
Sequence of binding of Factor VII to tissue factor (P13726 33-295): as above

CC(=O)N[C@H]1CSSC[C@@H](C(N)=O)NC(=O)[C@H](Cc2ccc(O)cc2)NC(=O)[C@H](CCC(N)=O)NC(=O)[C@H](CCC(=O)O)NC1=O [disulphide-cyclo-[Ac-Cys-Glu-Gln-Tyr-Cys-NH2 ]] (Ac-CEQYC-NH2; disulfide 1-5)
IC50 [1, 6]: 265 ± 174 µM | fold lower potency versus disulphide-cyclo-[H-Cys-Glu-Gln-Tyr-Cys-OH] ([1]; same assay): 26 fold | IC50 [1, 7]: ~200 µM | solubility properties in physiological media [2]: poor solubility properties | highest testable concentration due to solubility ([2]; coagulation assay buffer): ca. 1.5 mM | inhibition of binding of Factor VII to tissue factor [3]: negligible | effect on clotting time [4]: without any effect

H-YADKIEDTKL-OH [H-Tyr-Ala-Asp-Lys-Ile-Glu-Asp-Thr-Lys-Leu-OH]
effect on thrombus formation [5]: no effect

NC(=O)CC[C@@H]1NC(=O)[C@H](CCC(=O)O)NC(=O)[C@@H](N)CSSC[C@@H](C(=O)O)NC(=O)[C@H](Cc2ccc(O)cc2)NC1=O [disulphide-cyclo-[H-Cys-Glu-Gln-Tyr-Cys-OH]] (H-CEQYC-OH; disulfide 1-5)
IC50 [1, 6]: 10.1 ± 5 µM | IC50 [1, 7]: 10 µM | solubility properties in physiological media [2]: superior solubility properties; also recorded: freely soluble
